Data taken from patent US7026318B2 (Shionogi & Co., Ltd., priority 2000, dated 2006).
Where two headings read alike, the source gives them in different places.

How the values were obtained:
[1] = molecular target: human type I enzyme (sPLA2) (Homo sapiens, UniProt P04054); test: Inhibition test of human secretory phospholipase A2, chromogenic assay, type I enzyme; format: biochemical
[2] = molecular target: T1, human type II enzyme (sPLA2) (Homo sapiens, UniProt P14555); test: Inhibition test of human secretory phospholipase A2, chromogenic assay, type II enzyme; format: biochemical
T1 sequence (P14555 21-144): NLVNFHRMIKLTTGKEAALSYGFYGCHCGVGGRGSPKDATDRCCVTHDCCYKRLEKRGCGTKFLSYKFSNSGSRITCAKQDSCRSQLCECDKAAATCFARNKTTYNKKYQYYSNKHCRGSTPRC

human type X sPLA2 [3] = molecular target: T2, human type X sPLA2 (Homo sapiens, UniProt O15496); test: Inhibition test of human secretory phospholipase A2, chromogenic assay, type X enzyme; format: biochemical
T2 construct: made in house; unpurified culture supernatant
T2 sequence (O15496 43-165): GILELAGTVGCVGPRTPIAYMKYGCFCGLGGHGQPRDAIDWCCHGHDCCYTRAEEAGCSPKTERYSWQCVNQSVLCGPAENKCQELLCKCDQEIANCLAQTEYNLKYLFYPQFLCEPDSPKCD

human type V sPLA2 = molecular target: T3, human type V sPLA2 (Homo sapiens, UniProt P39877); test: Inhibition test of human secretory phospholipase A2, chromogenic assay, type V enzyme; format: biochemical
T3 construct: made in house; unpurified culture supernatant
T3 sequence (P39877 21-138): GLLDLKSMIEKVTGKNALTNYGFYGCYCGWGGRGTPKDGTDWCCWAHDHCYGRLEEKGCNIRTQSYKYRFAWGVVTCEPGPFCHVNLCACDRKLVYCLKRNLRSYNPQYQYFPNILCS

human type X sPLA2 [4] = molecular target: T2, human type X sPLA2; test: Type X sPLA2-induced fatty acid release from isolated human lipoproteins (LDL); format: biochemical; conditions: read-out: % of Inhibition (10 μM)
Procedure: Examination 17: Effects of sPLA2 Inhibitors on Type X sPLA2-Induced Fatty Acid Release From Isolated Human Lipoproteins.
LDL was isolated from human plasma by sequential ultracentrifugation method (Havel et al. J. Clin. Invest. 34,1345–1353 (1955)). LDL (0.5 mg/mL) was incubated with 10 nmol/L of human type X sPLA2 in the assay mixture containing 12.5 mmol/L Tris-HCl buffer (pH 8.0), 125 mg/L bovine serum albumin and 1 mmol/L calcium chloride for 4 hr at 37° C. Fatty acids released from lipoprotein were extracted by Dole's method (Dole et al. J. Biol. Chem. 235, 2595–2599 (1960)), labeled with 9-anthryldiazomethane according to a known method (Hanasaki et al., J. Biol. Chem. 274, 34203–34211 (1999)) and measured by detecting the fluorescence of labeled fatty acids using reverse-phase high performance chromatography (LiChroCART 125-4 Superspher 100 RP-18 column (Merck). For the inhibition assay of drugs, sPLA2 inhibitors (final concentration of 10 μM) were added at almost the same time as the addition of sPLA2 into the reaction solution. The results are presented in Table 10.

human type X sPLA2 [5] = molecular target: T2, human type X sPLA2; test: Human type X sPLA2-induced oleic acid release in human colon carcinoma HT-29 cells; format: cell-based; conditions: compound 10 μM, 100 nM human type X sPLA2, 30 min, percentage of the increase by type X sPLA2 (no treatment group = 100)
Procedure: Examination 15: Effects of sPLA2 Inhibitors on Human Type X sPLA2-Induced Oleic Acid Release in Human Colon Calcinoma Cell Lines, HT-29 Cells.
Human colon calcinoma cell lines, HT-29 cells (obtained from ATCC) were cultured in DMEM supplemented with 10% fetal calf serum. The cells were washed by phosphate-buffered saline (PBS), detached from culture plates by treatment with trypsin/EDTA solution and further washed by PBS. The resulting cells were resuspended in Hanks' buffered saline containing 0.1% bovine serum albumin (BSA) at a density of 12.5×10^6 cells/mL. Aliquots of the cell suspension (0.4 ml) were transferred into polypropylene tubes and test compounds dissolved in DMSO solution (final concentration; 10 μM) were added. After preincubation for 10 min at 37° C., 100 nM purified human type X sPLA2 enzyme (Hanasaki et al J. Biol. Chem. (1999) 274, 34203–34211) was added (final volume of 0.5 mL). After incubation for 30 min at 37° C., the reaction was stopped by the addition of 2 ml Dole's reagent (heptane:2-propanol:1M H2SO4=10:40:1, v/v/v).

human type X sPLA2 [6] = molecular target: T2, human type X sPLA2; test: Type X sPLA2-induced PGE2 production in human colon carcinoma HT-29 cells; format: cell-based; conditions: compound 10 μM; TNF-α-treated HT-29 cells; 100 nM human type X sPLA2, 3 h; percentage of PGE2 produced by type X sPLA2 (no treatment group = 100)
Procedure: Examination 16: Effects of sPLA2 Inhibitors on Type X sPLA2-Induced PGE2 Production in Human Colon Carcinoma Cell Lines, HT-29 Cells.
HT-29 cells were seeded into 24-well plates at a density of 2.5×10^5 cells/well. After incubation for 24 h, the cells were washed three times with PBS and incubated with 30 ng/mL of recombinant human tumor necrosis factor-α (R&D Systems, Inc.) in DMEM medium supplemented with 10% fetal bovine serum for 18 h at 37° C. After washing with PBS, the cells were preincubated with or without test compounds (at a final concentration of 10 μM; dissolved in DMSO) in Hanks' buffered saline containing 0.1% BSA for 10 min at 37° C., and then stimulated with 100 nM purified human type X sPLA2 enzyme in a final volume of 0.5 mL. After incubation for 3 h at 37° C, the culture supernatant was collected following the centrifugation for the removal of floating cells, and its PGE2 content was quantified with an enzyme-immunoassay kit (Cayman Chemicals Co.). From each data, the value in the absence of type X sPLA2 was subtracted. The amount of PGE2 in the presence of each test compound was expressed as the percentage of the PGE2 content produced by the addition of type X sPLA2 enzyme.

[7] = recombinant human sPLA2 type I, chromogenic assay, 30 min, read-out: IC50 type I
[8] = human sPLA2 type II, chromogenic assay, 30 min, read-out: IC50 type II
[9] = human sPLA2 type V (CHO supernatant), chromogenic assay, 45 min, read-out: IC50 type V
[10] = human sPLA2 type X (CHO supernatant), chromogenic assay, 30 min, read-out: IC50 type X

human type I enzyme (sPLA2), sequence (P04054 23-148): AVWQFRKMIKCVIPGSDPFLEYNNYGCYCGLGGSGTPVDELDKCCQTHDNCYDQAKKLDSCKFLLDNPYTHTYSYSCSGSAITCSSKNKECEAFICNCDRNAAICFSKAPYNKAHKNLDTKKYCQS

SMILES	IC50 [1, 7] [µM]	melting point [°C]	IC50 [2, 8] [µM]	IC50 (human type V sPLA2; [9]) [µM]	also measured
Cc1cc(OCC(=O)O)c2c(C(=O)C(N)=O)c(CC(C)C)n(Cc3ccccc3)c2c1 [Compound I-13]	> 0.7	220 to 221.5	> 1	> 1	IC50 (human type X sPLA2 [3]): 0.028 µM
Cc1cc(OCC(=O)O)c2c(C(=O)C(N)=O)c(CC(C)C)c(Cc3ccccc3)n2n1 [Compound I-9]	> 0.7	245 to 247	> 1	> 1	IC50 (human type X sPLA2 [3]; [10]): 0.022 µM
CCS(=O)(=O)NC(=O)COc1cccc2c1c(C(=O)C(N)=O)c(CC(C)C)n2Cc1ccccc1		200 to 201			
CCCS(=O)(=O)NC(=O)COc1cccc2c1c(C(=O)C(N)=O)c(CC(C)C)n2Cc1ccccc1		181 to 183			
CC(C)Cc1c(C(=O)C(N)=O)c2c(OCC(=O)O)cccc2n1Cc1ccc(F)cc1 [Compound I-11]	> 0.7	172 to 173.5	> 1	> 1	IC50 (human type X sPLA2 [3]): 0.012 µM
Cc1cn2c(Cc3ccccc3)c(CC(C)C)c(C(=O)C(N)=O)c2c(OCC(=O)NS(=O)(=O)c2ccccc2)n1 [Compound I-15]	> 0.7	193 to 195	> 1	> 1	IC50 (human type X sPLA2 [3]; [10]): 0.037 µM
CC(C)Cc1c(C(=O)C(N)=O)c2c(OCC(=O)NS(=O)(=O)c3ccccc3)cccc2n1Cc1ccc(F)cc1 [Compound I-22]		172 to 173			IC50 [1]: > 0.7 µM; IC50 [2]: > 1 µM; IC50 (human type X sPLA2 [3]): 0.008 µM; IC50 (human type V sPLA2): > 1 µM; inhibition at 10 µM (human type X sPLA2 [4]): 91.7%
CC(C)Cc1c(C(=O)C(N)=O)c2c(OCC(=O)NS(=O)(=O)C(F)(F)F)cccc2n1Cc1ccccc1 [Compound I-30]					inhibition at 10 µM (human type X sPLA2 [4]; compound 10 μM, human LDL 0.5 mg/mL, 10 nmol/L human type X sPLA2, 4 hr at 37° C.): 97.5%
Cc1cc(OCC(=O)NS(=O)(=O)c2ccccc2)c2c(C(=O)C(N)=O)c(CC(C)C)c(Cc3ccccc3)n2n1 [Compound I-32]	> 0.7		> 1	> 1	IC50 (human type X sPLA2 [3]; [10]): 0.046 µM
CC(C)Cc1c(C(=O)C(N)=O)c2c(OCC(=O)O)cccc2n1CC1CCCCC1 [Compound I-12]	> 0.7	195.5 to 197	> 1	> 1	IC50 (human type X sPLA2 [3]): 0.032 µM
CCS(=O)(=O)NC(=O)COc1nc(C)cn2c(Cc3ccccc3)c(CC(C)C)c(C(=O)C(N)=O)c12 [Compound I-17]		214 to 215			
Cc1cc(OCC(=O)NS(=O)(=O)c2ccccc2)c2c(C(=O)C(N)=O)c(CC(C)C)n(Cc3ccccc3)c2c1 [Compound I-24]	> 0.7	145 to 147	> 1	> 1	IC50 (human type X sPLA2 [3]): 0.023 µM
Cc1cn2c(Cc3ccccc3)c(Cc3ccccc3)c(C(=O)C(N)=O)c2c(OCC(=O)O)n1 [Compound I-7]		258 to 260			
CC(C)Cc1c(C(=O)C(N)=O)c2c(OCC(=O)NS(=O)(=O)C(C)C)cccc2n1Cc1ccccc1		218.5 to 220			
Cc1cn2c(Cc3ccccc3)c(CC(C)C)c(CC(N)=O)c2c(OCC(=O)NS(=O)(=O)C(C)C)n1 [Compound I-36]		162 to 163			
CCCCc1c(C(=O)C(N)=O)c2c(OCC(=O)O)nc(C)cn2c1Cc1ccccc1 [Compound I-5]		205 to 207			
Cc1cc(OCC(=O)NS(C)(=O)=O)c2c(C(=O)C(N)=O)c(CC(C)C)n(Cc3ccccc3)c2c1 [Compound I-25]	> 0.7	211 to 214	> 1	> 1	IC50 (human type X sPLA2 [3]): 0.007 µM
Cc1cn2c(CC3CCCCC3)c(CC(C)C)c(C(=O)C(N)=O)c2c(OCC(=O)O)n1 [Compound I-2]	> 0.7	209 to 210	> 1	> 1	IC50 (human type X sPLA2 [3]; [10]): 0.043 µM
CC(C)Cc1c(CC(N)=O)c2c(OCC(=O)NS(=O)(=O)C(C)C)cccc2n1Cc1ccccc1 [Compound I-34]		189 to 190			
CC(C)Cc1c(C(=O)C(N)=O)c2c(OCC(=O)O)cccc2n1-c1ccccc1 [Compound I-14]		200.5 to 202			
Cc1cn2c(Cc3ccccc3)c(CC(C)C)c(C(=O)C(N)=O)c2c(OCC(=O)NS(C)(=O)=O)n1 [Compound I-16]		211 to 212			
CC(C)Cc1c(C(=O)C(N)=O)c2c(OCC(=O)NS(C)(=O)=O)cccc2n1Cc1ccccc1 [Compound I-23]	> 0.7		> 1	> 1	Oleic acid release (human type X sPLA2 [5]): −2.0 ± 5.1 %; IC50 (human type X sPLA2 [3]): 0.006 µM; PGE2 production (human type X sPLA2 [6]): 9.0 ± 28.1 %
Cc1cn2c(Cc3ccccc3)c(CC(C)C)c(C(=O)C(N)=O)c2c(OCC(=O)O)n1 [Compound I-1]	> 0.7	206 to 208	> 1	> 1	IC50 (human type X sPLA2 [3]; [10]): 0.032 µM
CC(C)Cc1c(C(=O)C(N)=O)c2c(OCC(=O)NS(=O)(=O)c3ccccc3)cccc2n1Cc1ccccc1 [Compound I-21]					Oleic acid release (human type X sPLA2 [5]): 11.8 ± 0.6 %; IC50 (human type X sPLA2 [3]): 0.008 µM; PGE2 production (human type X sPLA2 [6]): −6.6 ± 7.1 %
CCCCS(=O)(=O)NC(=O)COc1cccc2c1c(C(=O)C(N)=O)c(CC(C)C)n2Cc1ccccc1		219.5 to 221			
CCCS(=O)(=O)NC(=O)COc1nc(C)cn2c(Cc3ccccc3)c(CC(C)C)c(C(=O)C(N)=O)c12 [Compound I-18]		205 to 207			
Cc1cn2c(CCc3ccccc3)c(CC(C)C)c(C(=O)C(N)=O)c2c(OCC(=O)O)n1 [Compound I-4]		202 to 203			Oleic acid release (human type X sPLA2 [5]): 13.8 ± 1.8 %; PGE2 production (human type X sPLA2 [6]): 35.3 ± 40.2 %
Cc1cn2c(Cc3ccccc3)c(CC(C)C)c(C(=O)C(N)=O)c2c(OCC(=O)NS(=O)(=O)C(C)C)n1 [Compound I-19]		196 to 198			
Cc1cn2c(Cc3ccccc3)c(CC(C)C)c(CC(N)=O)c2c(OCC(=O)NS(C)(=O)=O)n1 [Compound I-35]		188 to 190			
Cc1cn2c(CC3CCCC3)c(CC(C)C)c(C(=O)C(N)=O)c2c(OCC(=O)O)n1 [Compound I-3]	> 0.7	193 to 194.5	> 1	> 1	IC50 (human type X sPLA2 [3]; [10]): 0.048 µM
